# Reference: the kinase profiling compilation of Christmann-Franck et al. (2016)
# Columns and labels:
# Assay in all cases: KINOMEscan competition binding
# Details in all cases: compound 10.0 µM
# [1] = target: CLK3 (human) (UniProt P49761)
# [2] = target: ADCK3 (human) (UniProt Q8NI60)
# [3] = target: MAST1 (human) (UniProt Q9Y2H9)
# [4] = target: TAOK3 (human) (UniProt Q9H2K8)
# [5] = target: TLK2 (human) (UniProt Q86UE8)
# [6] = target: TIE1 (human) (UniProt P35590)
# [7] = target: PAK4 (human) (UniProt O96013)
# [8] = target: MKNK2 (human) (UniProt Q9HBH9)
# [9] = target: FLT1 (human) (UniProt P17948)
# [10] = target: MAP3K15 (human) (UniProt Q6ZN16)
# [11] = target: MAP4K5 (human) (UniProt Q9Y4K4)
# [12] = target: CDKL3 (human) (UniProt Q8IVW4)
# [13] = target: EPHA8 (human) (UniProt P29322)
# [14] = target: PRKG1 (human) (UniProt Q13976)
# [15] = target: ACVRL1 (human) (UniProt P37023)
# [16] = target: BTK (human) (UniProt Q06187)
# [17] = target: AKT2 (human) (UniProt P31751)
# [18] = target: CAMK1G (human) (UniProt Q96NX5)
# [19] = target: GRK7 (human) (UniProt Q8WTQ7)
# [20] = target: CAMK2G (human) (UniProt Q13555)
# [21] = target: SRMS (human) (UniProt Q9H3Y6)
# [22] = target: PAK3 (human) (UniProt O75914)
# [23] = target: NUAK2 (human) (UniProt Q9H093)
# [24] = target: PRKD3 (human) (UniProt O94806)
# [25] = target: MAPK12 (human) (UniProt P53778)
# [26] = target: SGK110 (human) (UniProt P0C264)
# [27] = target: PAK7 (human) (UniProt Q9P286)
# [28] = target: LATS2 (human) (UniProt Q9NRM7)
# [29] = target: CIT (human) (UniProt O14578)
# [30] = target: PDGFRA (human) (UniProt P16234)
# [31] = target: ULK2 (human) (UniProt Q8IYT8)
# [32] = target: PTK2B (human) (UniProt Q14289)
# [33] = target: MAPK15 (human) (UniProt Q8TD08)
# [34] = target: MAPK3 (human) (UniProt P27361)
# [35] = target: PRPF4B (human) (UniProt Q13523)
# [36] = target: ULK3 (human) (UniProt Q6PHR2)
# [37] = target: PRKCE (human) (UniProt Q02156)
# [38] = target: MAK (human) (UniProt P20794)
# [39] = test system: FLT3 (human), P36888 [R834Q]
# [40] = target: PIP5K1C (human) (UniProt O60331)
# [41] = target: SNRK (human) (UniProt Q9NRH2)
# CDKL3 (human), sequence (Q8IVW4 whole entry, looked up): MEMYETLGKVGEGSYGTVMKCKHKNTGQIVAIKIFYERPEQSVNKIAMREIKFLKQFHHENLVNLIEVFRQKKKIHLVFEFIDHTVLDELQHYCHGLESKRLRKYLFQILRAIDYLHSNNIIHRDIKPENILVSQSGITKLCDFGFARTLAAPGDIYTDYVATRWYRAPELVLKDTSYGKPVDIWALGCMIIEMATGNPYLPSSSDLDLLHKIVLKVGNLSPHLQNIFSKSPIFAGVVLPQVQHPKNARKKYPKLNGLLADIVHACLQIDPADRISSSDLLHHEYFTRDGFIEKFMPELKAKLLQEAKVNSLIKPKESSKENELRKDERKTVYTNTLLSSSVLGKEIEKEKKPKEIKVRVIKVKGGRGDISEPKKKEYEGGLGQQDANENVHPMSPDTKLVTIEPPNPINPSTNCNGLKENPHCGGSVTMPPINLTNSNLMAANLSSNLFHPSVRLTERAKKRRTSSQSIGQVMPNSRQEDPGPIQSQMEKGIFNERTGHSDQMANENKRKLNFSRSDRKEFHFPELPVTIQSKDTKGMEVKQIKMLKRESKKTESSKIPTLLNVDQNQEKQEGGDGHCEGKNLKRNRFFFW
# ACVRL1 (human), sequence (P37023 whole entry, looked up): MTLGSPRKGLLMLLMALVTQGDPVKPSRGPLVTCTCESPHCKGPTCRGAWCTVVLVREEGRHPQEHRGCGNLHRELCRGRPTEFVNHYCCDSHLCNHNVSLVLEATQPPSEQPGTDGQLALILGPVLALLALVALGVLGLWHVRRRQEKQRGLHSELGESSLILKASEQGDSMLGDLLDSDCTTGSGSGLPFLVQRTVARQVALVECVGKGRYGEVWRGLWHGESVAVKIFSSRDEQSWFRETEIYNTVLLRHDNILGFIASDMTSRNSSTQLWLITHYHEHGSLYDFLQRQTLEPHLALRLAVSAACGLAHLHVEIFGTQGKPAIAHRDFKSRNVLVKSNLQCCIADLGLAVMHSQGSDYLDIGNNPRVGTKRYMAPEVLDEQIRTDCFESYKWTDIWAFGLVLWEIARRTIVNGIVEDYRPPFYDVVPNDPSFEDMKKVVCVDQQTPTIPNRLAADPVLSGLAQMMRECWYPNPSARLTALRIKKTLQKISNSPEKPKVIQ
# PAK4 (human), sequence (O96013 whole entry, looked up): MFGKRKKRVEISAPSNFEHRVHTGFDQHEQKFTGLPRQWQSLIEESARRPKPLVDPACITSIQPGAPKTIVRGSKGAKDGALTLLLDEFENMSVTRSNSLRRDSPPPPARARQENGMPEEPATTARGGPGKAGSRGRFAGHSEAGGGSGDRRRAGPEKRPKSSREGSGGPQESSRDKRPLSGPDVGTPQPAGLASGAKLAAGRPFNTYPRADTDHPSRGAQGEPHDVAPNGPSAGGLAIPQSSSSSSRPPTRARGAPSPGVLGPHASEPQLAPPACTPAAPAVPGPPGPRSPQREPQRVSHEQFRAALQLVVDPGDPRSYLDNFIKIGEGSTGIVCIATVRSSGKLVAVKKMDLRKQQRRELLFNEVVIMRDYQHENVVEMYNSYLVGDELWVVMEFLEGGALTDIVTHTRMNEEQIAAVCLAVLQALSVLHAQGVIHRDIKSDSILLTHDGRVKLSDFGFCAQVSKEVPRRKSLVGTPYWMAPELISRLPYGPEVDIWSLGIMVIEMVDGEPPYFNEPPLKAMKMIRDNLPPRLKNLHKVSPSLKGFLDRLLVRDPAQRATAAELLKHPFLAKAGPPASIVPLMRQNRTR
# MAK (human), sequence (P20794 whole entry, looked up): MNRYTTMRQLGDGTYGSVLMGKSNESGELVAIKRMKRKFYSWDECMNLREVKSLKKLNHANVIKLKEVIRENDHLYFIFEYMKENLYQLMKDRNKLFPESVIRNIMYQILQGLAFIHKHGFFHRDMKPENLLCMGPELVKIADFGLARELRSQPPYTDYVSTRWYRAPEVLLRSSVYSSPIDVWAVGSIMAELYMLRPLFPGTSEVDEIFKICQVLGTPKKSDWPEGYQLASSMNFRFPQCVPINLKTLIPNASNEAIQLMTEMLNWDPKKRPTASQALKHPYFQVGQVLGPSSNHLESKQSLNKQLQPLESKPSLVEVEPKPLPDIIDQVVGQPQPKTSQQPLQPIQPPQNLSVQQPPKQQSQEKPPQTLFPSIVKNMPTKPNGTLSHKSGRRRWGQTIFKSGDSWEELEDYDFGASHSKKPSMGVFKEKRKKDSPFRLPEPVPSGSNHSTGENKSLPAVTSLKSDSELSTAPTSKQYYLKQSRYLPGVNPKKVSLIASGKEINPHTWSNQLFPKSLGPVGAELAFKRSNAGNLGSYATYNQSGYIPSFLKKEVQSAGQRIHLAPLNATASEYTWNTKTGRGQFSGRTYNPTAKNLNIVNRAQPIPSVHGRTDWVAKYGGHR
# FLT1 (human), sequence (P17948 whole entry, looked up): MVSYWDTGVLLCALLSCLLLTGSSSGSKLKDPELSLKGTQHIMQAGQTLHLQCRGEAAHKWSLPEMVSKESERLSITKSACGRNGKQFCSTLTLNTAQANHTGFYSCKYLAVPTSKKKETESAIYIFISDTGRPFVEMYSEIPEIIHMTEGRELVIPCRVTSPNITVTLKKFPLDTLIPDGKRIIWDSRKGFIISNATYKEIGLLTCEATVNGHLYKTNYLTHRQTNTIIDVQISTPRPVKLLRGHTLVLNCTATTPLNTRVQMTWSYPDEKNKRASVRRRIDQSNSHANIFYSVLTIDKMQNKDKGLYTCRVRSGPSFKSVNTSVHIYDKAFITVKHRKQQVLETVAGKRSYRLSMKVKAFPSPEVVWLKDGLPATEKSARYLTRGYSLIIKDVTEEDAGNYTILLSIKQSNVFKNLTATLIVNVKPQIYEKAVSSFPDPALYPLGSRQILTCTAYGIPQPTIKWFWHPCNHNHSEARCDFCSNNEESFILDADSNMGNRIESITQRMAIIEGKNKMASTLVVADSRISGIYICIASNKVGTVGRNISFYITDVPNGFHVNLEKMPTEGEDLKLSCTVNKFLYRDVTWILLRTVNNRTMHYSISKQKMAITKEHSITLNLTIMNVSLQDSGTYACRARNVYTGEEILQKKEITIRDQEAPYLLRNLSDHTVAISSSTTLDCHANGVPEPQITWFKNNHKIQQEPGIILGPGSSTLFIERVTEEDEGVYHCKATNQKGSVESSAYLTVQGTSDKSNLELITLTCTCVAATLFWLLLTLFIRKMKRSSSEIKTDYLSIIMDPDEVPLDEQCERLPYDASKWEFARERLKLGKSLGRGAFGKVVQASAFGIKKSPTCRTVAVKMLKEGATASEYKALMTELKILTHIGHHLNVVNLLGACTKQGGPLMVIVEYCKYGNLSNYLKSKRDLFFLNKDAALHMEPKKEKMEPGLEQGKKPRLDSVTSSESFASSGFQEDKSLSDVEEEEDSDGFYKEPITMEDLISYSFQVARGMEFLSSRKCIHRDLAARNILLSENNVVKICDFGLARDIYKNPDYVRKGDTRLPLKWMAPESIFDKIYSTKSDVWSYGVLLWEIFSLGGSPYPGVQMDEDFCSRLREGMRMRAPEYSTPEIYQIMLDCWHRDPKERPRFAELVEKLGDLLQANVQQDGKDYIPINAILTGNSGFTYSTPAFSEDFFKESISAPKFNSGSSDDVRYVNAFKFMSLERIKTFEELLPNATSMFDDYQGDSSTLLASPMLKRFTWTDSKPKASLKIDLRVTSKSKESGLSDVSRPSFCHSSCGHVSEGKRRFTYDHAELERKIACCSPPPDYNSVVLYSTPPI
# PRPF4B (human), sequence (Q13523 whole entry, looked up): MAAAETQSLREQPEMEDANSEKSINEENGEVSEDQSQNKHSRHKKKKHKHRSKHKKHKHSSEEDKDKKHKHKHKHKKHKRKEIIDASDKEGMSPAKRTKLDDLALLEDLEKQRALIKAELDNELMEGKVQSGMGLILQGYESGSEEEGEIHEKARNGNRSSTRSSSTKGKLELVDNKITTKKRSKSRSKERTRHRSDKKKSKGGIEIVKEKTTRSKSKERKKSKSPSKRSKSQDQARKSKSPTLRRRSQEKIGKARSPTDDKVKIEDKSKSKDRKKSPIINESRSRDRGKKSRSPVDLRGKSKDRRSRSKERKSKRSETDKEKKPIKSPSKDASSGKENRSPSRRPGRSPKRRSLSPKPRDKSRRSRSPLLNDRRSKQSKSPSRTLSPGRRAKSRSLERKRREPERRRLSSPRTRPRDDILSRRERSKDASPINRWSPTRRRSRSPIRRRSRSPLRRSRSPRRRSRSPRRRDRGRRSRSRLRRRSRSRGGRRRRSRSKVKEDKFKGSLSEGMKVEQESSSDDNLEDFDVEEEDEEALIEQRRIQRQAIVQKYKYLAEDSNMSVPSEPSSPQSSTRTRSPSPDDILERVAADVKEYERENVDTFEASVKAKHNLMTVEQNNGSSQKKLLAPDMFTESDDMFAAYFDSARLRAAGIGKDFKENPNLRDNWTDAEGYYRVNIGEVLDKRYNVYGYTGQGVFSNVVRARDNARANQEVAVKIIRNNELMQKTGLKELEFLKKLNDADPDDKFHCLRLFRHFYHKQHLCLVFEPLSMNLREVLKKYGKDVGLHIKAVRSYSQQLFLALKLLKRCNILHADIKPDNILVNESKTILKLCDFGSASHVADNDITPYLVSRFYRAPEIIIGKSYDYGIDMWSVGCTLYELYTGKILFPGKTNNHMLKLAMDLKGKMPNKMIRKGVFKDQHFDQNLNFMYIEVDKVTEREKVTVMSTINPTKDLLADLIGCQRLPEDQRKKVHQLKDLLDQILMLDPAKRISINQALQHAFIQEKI
# MAPK3 (human), sequence (P27361 whole entry, looked up): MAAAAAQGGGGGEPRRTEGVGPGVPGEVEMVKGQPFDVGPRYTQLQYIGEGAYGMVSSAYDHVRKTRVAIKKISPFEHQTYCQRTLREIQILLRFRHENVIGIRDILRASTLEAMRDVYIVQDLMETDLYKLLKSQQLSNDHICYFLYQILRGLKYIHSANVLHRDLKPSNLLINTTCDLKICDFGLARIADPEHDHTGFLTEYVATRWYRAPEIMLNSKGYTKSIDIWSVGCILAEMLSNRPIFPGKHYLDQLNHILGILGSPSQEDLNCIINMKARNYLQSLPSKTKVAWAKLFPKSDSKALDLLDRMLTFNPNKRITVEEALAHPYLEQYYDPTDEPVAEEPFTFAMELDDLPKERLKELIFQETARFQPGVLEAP
Structure (SMILES),"kinase still bound, per cent of control [2] [%]","kinase still bound, per cent of control [3] [%]","kinase still bound, per cent of control [4] [%]","kinase still bound, per cent of control [5] [%]","kinase still bound, per cent of control [7] [%]","kinase still bound, per cent of control [8] [%]","kinase still bound, per cent of control [9] [%]","kinase still bound, per cent of control [10] [%]","kinase still bound, per cent of control [12] [%]","kinase still bound, per cent of control [13] [%]","kinase still bound, per cent of control [14] [%]","kinase still bound, per cent of control [15] [%]","kinase still bound, per cent of control [17] [%]","kinase still bound, per cent of control [18] [%]","kinase still bound, per cent of control [19] [%]","kinase still bound, per cent of control [22] [%]","kinase still bound, per cent of control [23] [%]","kinase still bound, per cent of control [24] [%]","kinase still bound, per cent of control [26] [%]","kinase still bound, per cent of control [27] [%]",other results
CCN(CC)CCCCNc1ncc2c(n1)N(C)C(=O)N(c1c(Cl)c(OC)cc(OC)c1Cl)C2,100,100,0.4,100,100,100,5.6,100,100,100,100,100,100,100,100,100,100,100,100,100,"kinase still bound, per cent of control [1]: 100%; kinase still bound, per cent of control [6]: 10%; kinase still bound, per cent of control [11]: 23%; kinase still bound, per cent of control [16]: 100%; kinase still bound, per cent of control [20]: 100%; kinase still bound, per cent of control [21]: 100%; kinase still bound, per cent of control [25]: 100%; kinase still bound, per cent of control [28]: 100%; kinase still bound, per cent of control [29]: 100%; kinase still bound, per cent of control [30]: 100%; kinase still bound, per cent of control [31]: 100%; kinase still bound, per cent of control [32]: 100%; kinase still bound, per cent of control [33]: 100%; kinase still bound, per cent of control [34]: 100%; kinase still bound, per cent of control [35]: 100%; kinase still bound, per cent of control [36]: 100%; kinase still bound, per cent of control [37]: 100%; kinase still bound, per cent of control [38]: 100%"
COc1cc(N2CCN(C)CC2)ccc1Nc1ncc2c(n1)N(C)c1ccccc1C(=O)N2C,100,100,2,100,100,0,100,100,100,100,100,100,100,100,100,100,14,5.4,30,100,"kinase still bound, per cent of control [1]: 100%; kinase still bound, per cent of control [6]: 100%; kinase still bound, per cent of control [11]: 100%; kinase still bound, per cent of control [16]: 100%; kinase still bound, per cent of control [20]: 31%; kinase still bound, per cent of control [21]: 100%; kinase still bound, per cent of control [25]: 100%; kinase still bound, per cent of control [28]: 100%; kinase still bound, per cent of control [29]: 100%; kinase still bound, per cent of control [30]: 100%; kinase still bound, per cent of control [31]: 0.5%; kinase still bound, per cent of control [32]: 100%; kinase still bound, per cent of control [33]: 100%; kinase still bound, per cent of control [34]: 100%; kinase still bound, per cent of control [35]: 100%; kinase still bound, per cent of control [36]: 100%; kinase still bound, per cent of control [37]: 100%; kinase still bound, per cent of control [38]: 100%"
C[C@@H](Oc1cc(-c2cnn(C3CCNCC3)c2)cnc1N)c1c(Cl)ccc(F)c1Cl,53,100,1.4,100,80,11,25,73,68,0.2,100,45,100,76,42,5.8,5.5,3,3.4,49,"kinase still bound, per cent of control [39]: 25%; kinase still bound, per cent of control [40]: 63%; kinase still bound, per cent of control [20]: 100%; kinase still bound, per cent of control [21]: 54%; kinase still bound, per cent of control [28]: 56%; kinase still bound, per cent of control [41]: 100%; kinase still bound, per cent of control [29]: 62%; kinase still bound, per cent of control [30]: 92%; kinase still bound, per cent of control [31]: 4.7%; kinase still bound, per cent of control [33]: 80%; kinase still bound, per cent of control [34]: 100%; kinase still bound, per cent of control [35]: 48%; kinase still bound, per cent of control [36]: 8.8%; kinase still bound, per cent of control [37]: 100%; kinase still bound, per cent of control [38]: 63%"
CNC(=O)c1cc(Oc2ccc(NC(=O)Nc3ccc(Cl)c(C(F)(F)F)c3)cc2)ccn1,100,100,0.8,91,91,0.1,6.6,100,0.6,3.9,95,77,70,99,100,40,100,67,94,100,"kinase still bound, per cent of control [1]: 91%; kinase still bound, per cent of control [39]: 50%; kinase still bound, per cent of control [40]: 87%; kinase still bound, per cent of control [11]: 7.2%; kinase still bound, per cent of control [28]: 85%; kinase still bound, per cent of control [41]: 100%; kinase still bound, per cent of control [29]: 17%; kinase still bound, per cent of control [30]: 0%; kinase still bound, per cent of control [31]: 89%; kinase still bound, per cent of control [32]: 100%; kinase still bound, per cent of control [33]: 0.85%; kinase still bound, per cent of control [34]: 100%; kinase still bound, per cent of control [35]: 100%; kinase still bound, per cent of control [36]: 92%; kinase still bound, per cent of control [37]: 86%; kinase still bound, per cent of control [38]: 41%"
